Patent publication US11014955B2, “Cyclic peroxides as prodrugs for selective delivery of agents” (THE REGENTS OF THE UNIVERSITY OF CALIFORNIA, priority 2014, dated 2021)
Values joined by “and” are separate entries in the source; they are usually repeats but may differ in a detail not shown here. Equal entries are not always repeated. Structures can show the parent of a compound that is named as a salt. Where two headings read alike, the source gives them in different places. One block for each compound: values may come before it.

How the values were obtained:
HeLa = assay: Biological activity EC50, HeLa; assay type: cell-based; details: Homo sapiens; Target (Cell Line): HeLa
P. falc W2 = assay: Biological activity EC50, P. falc W2; assay type: cell-based; details: Plasmodium falciparum
IMR90 = assay: Biological activity EC50, IMR90; assay type: cell-based; details: Homo sapiens, IMR-90; Target (Cell Line): IMR90
MB-MDA-231 = assay: Biological activity EC50, MB-MDA-231; assay type: cell-based
P. falc DD2 = assay: Biological activity EC50, P. falc DD2; assay type: cell-based; details: Plasmodium falciparum; Target (Cell Line): P. falc DD2
P. falc = assay: Biological activity EC50, P. falc (strain not given); assay type: cell-based; details: Plasmodium falciparum; Target (Cell Line): P. falc
PC-3 = assay: Biological activity EC50, PC-3; assay type: cell-based; details: Homo sapiens; Target (Cell Line): PC-3
U87MG = assay: Biological activity EC50, U87MG; assay type: cell-based; details: Homo sapiens, U-87 MG; Target (Cell Line): U87MG
MCF-7 = assay: Biological activity EC50, MCF-7; assay type: cell-based; details: Homo sapiens, MCF7; Target (Cell Line): MCF-7
P. falc D10 = assay: Biological activity EC50, P. falc D10; assay type: cell-based, P. falciparum; details: Target (Cell Line): P. falc D10
P. falc HB3 = assay: Biological activity EC50, P. falc HB3; assay type: cell-based; details: Plasmodium falciparum; Target (Cell Line): P. falc HB3
P. falc 3D7 = assay: Biological activity EC50, P. falc 3D7; assay type: cell-based; details: Plasmodium falciparum; Target (Cell Line): P. falc 3D7
[1] = Target (Cell Line): P. falc W2, read-out: Activity EC50
[2] = Target (Cell Line): MB-MDA-231, read-out: Activity EC50

SMILES: COc1ccc(/C=C/C(=O)N2CC(CCl)c3c2cc(NC(=O)OC2CCCC4(C2)OCC2(O4)C4CC5CC(C4)CC2C5)c2ccccc32)cc1 (stereo not drawn) [Example 15, dispiro[adamantane-2,4′-[1,3]dioxolane-2′,1″-cyclohexane]-3″-yl N-[1-(chloromethyl)-3-[(2E)-3-(4-methoxyphenyl)prop-2-enoyl]-1H,2H,3H-benzo[e]indol-5-yl]carbamate]
EC50 (HeLa): > 1000 nM
EC50 (P. falc W2; [1]): 41 nM
EC50 (IMR90): > 1000 nM

SMILES: COc1ccc(C[C@H](N)C(=O)N[C@H]2[C@@H](O)[C@H](n3cnc4c(N(C)C)ncnc43)O[C@@H]2CO)cc1 [Puromycin dihydrochloride, reference compound]
EC50 (MB-MDA-231; [2]): 569 nM
EC50 (HeLa): 783 nM
EC50 (IMR90): 1700 nM
EC50 (P. falc DD2): 25.3 nM

SMILES: COc1ccc(-c2cnnn2-c2cc(OC)c(OC)c(OC)c2)cc1NC(=O)OC1CCCC2(C1)OCC1(O2)C2CC3CC(C2)CC1C3 (stereo not drawn) [Example 12, dispiro[adamantane-2,4′-[1,3]dioxolane-2′,1″-cyclohexane]-3″-yl N-{2-methoxy-S-[1-(3,4,5-trimethoxyphenyl)-1H-1,2,3-triazol-5-yl]phenyl}carbamate]
EC50 (PC-3): > 1000 nM
EC50 (HeLa): > 1000 nM
EC50 (P. falc W2; [1]): > 1000 nM
EC50 (MCF-7): > 1000 nM

SMILES: CCCCC(C(=O)COc1c(F)c(F)cc(F)c1F)n1cc(C2(NC(=O)OC3CCCC4(C3)OOC3(O4)C4CC5CC(C4)CC3C5)CCCCC2)nn1 (stereo not drawn) [Example 9, dispiro[adamantane-2,2′-[1,3,5]trioxolane-4′,1″-cyclohexane]-3″-yl N-(1-{1-[2-oxo-1-(2,3,5,6-tetrafluorophenoxy)heptan-3-yl]-1H-1,2,3-triazol-4-yl}cyclohexyl)carbamate]
EC50 (P. falc D10; Plasmodium falciparum): 29 nM
EC50 (P. falc D10): 15.7 nM and 23.3 nM

SMILES: COc1ccc(/C=C/C(=O)N2CC(CCl)c3c2cc(N)c2ccccc32)cc1 (stereo not drawn) [Literature Compound C, reference compound]
EC50 (HeLa): 11 nM
EC50 (U87MG): 5 nM
EC50 (P. falc W2; read-out: Activity EC50 (nM)): 0.45 nM
EC50 (IMR90): 3 nM

SMILES: CCCCN(CCCC)CCC(OC(=O)OC1CCCC2(C1)OOC1(O2)C2CC3CC(C2)CC1C3)c1cc2c(Cl)cc(Cl)cc2c2cc(C(F)(F)F)ccc12 (stereo not drawn) [Example 8, 3-(dibutylamino)-1-[1,3-dichloro-6-(trifluoromethyl)phenanthren-9-yl]propyl dispiro[adamantane-2,2′-[1,3,5]trioxolane-4′,1″-cyclohexane]-3″-yl carbonate]
EC50 (P. falc HB3): 8 nM
EC50 (P. falc 3D7): 21 nM
EC50 (P. falc DD2): 15 nM

SMILES: CN(C)c1cccc2c(S(=O)(=O)NC34CC5CC(C3)C3(OOC6(CCCCC6)O3)C(C5)C4)cccc12 (stereo not drawn) [Example 20, 5-(dimethylamino)-N-{dispiro[adamantane-2,2′-trioxolane-4′,1″-cyclohexane]-7-yl}naphthalene-1-sulfonamide]
EC50 (P. falc DD2): 11.4 nM

SMILES: COc1ccc(-c2cnnn2-c2cc(OC)c(OC)c(OC)c2)cc1N [Literature Compound B, reference compound]
EC50 (MB-MDA-231; read-out: Activity EC50 (nM)): 10 nM
EC50 (PC-3): 9 nM
EC50 (HeLa): 11 nM
EC50 (P. falc W2; read-out: Activity EC50 (nM)): > 1000 nM
EC50 (MCF-7): 10 nM

SMILES: COc1ccc(/C=C/C(=O)N2CC(CCl)c3c2cc(NC(=O)OC2CCCC4(C2)OOC2(O4)C4CC5CC(C4)CC2C5)c2ccccc32)cc1 (stereo not drawn) [Example 14, dispiro[adamantane-2,2′-[1,3,5]trioxolane-4′,1″-cyclohexane]-3″-yl N-[1-(chloromethyl)-3-[(2E)-3-(4-methoxyphenyl)prop-2-enoyl]-1H,2H,3H-benzo[e]indol-5-yl]carbamate]
EC50 (HeLa): 105 nM
EC50 (U87MG): 40 nM
EC50 (P. falc W2; [1]): 2.8 nM
EC50 (IMR90): 100 nM

SMILES: CCCCC(C(=O)COc1c(F)c(F)cc(F)c1F)n1cc(C2(N)CCCCC2)nn1 (stereo not drawn) [Literature Compound A, reference compound]
EC50 (P. falc D10; Plasmodium falciparum): 70 nM

Now from value to compound:

EC50 (MB-MDA-231; [2]): 5270 nM
EC50 (HeLa): 3210 nM
EC50 (IMR90): 6980 nM
EC50 (P. falc DD2): 12.7 nM
SMILES: COc1ccc(C[C@H](NC(=O)OC2CCCC3(C2)OOC2(O3)C3CC4CC(C3)CC2C4)C(=O)N[C@H]2[C@@H](O)[C@H](n3cnc4c(N(C)C)ncnc43)O[C@@H]2CO)cc1 (stereo partly drawn) [Example 22, dispiro[adamantane-2,2′-[1,3,5]trioxolane-4′,1″-cyclohexane]-3″-yl N-[(1S)-1-{[(2S,3S,4R,5R)-5-[6-(dimethylamino)-9H-purin-9-yl]-4-hydroxy-2-(hydroxymethyl)oxolan-3-yl]carbamoyl}-2-(4-methoxyphenyl)ethyl]carbamate]

EC50 (P. falc): 408 nM
SMILES: O=C1CCCC2(C1)OOC1(O2)C2CC3CC(C2)CC1C3 (stereo not drawn) [Cmpd 2b, dispiro[adamantane-2,2′-[1,3,5]trioxolane-4′,1″-cyclohexane]-3″-one]

EC50 (P. falc DD2): 54.2 nM
SMILES: CN(C)c1cccc2c(S(=O)(=O)N3CCC4(CC3)OOC3(O4)C4CC5CC(C4)CC3C5)cccc12 (stereo not drawn) [Example 21, 5-({dispiro[adamantane-2,2′-[1,3,5]trioxolane-4′,4″-piperidine]-1″-yl}sulfonyl)-N,N-dimethylnaphthalen-1-amine]

EC50 (MB-MDA-231; [2]): > 1000 nM
EC50 (PC-3): > 1000 nM
EC50 (HeLa): > 1000 nM
EC50 (U87MG): > 1000 nM
EC50 (P. falc W2; [1]): > 1000 nM
EC50 (MCF-7): > 1000 nM
SMILES: COc1ccc(-c2cnnn2-c2cc(OC)c(OC)c(OC)c2)cc1NC(=O)OC1CCCC2(COC3(O2)C2CC4CC(C2)CC3C4)C1 (stereo not drawn) [Example 13, dispiro[adamantane-2,2′-[1,3]dioxolane-4′,1″-cyclohexane]-3″-yl N-{2-methoxy-5-[1-(3,4,5-trimethoxyphenyl)-1H-1,2,3-triazol-5-yl]phenyl}carbamate]

EC50 (P. falc): 147 nM
SMILES: O=C(Nc1cc(Cl)ccc1Cl)O[C@@H]1C[C@H](OC(=O)Nc2cc(Cl)ccc2Cl)CC2(C1)OOC1(O2)C2CC3CC(C2)CC1C3 (relative stereo) [Example 4, (3″R*,5″S*)-5″-{[(2,5-dichlorophenyl)carbamoyl]oxy}dispiro[adamantane-2,2′-[1,3,5]trioxolane-4′,1″-cyclohexane]-3″-yl N-(2,5-dichlorophenyl)carbamate]

EC50 (P. falc): 10.7 nM
SMILES: C=CC1(OC(=O)Nc2cc(Cl)ccc2Cl)CCCC2(C1)OOC1(O2)C2CC3CC(C2)CC1C3 (stereo not drawn) [Example 2, 3″-ethenyldispiro[adamantane-2,2′-[1,3,5]trioxolane-4′,1′-cyclohexane]-3″-yl N-(2,5-dichlorophenyl)carbamate]

EC50 (MB-MDA-231; [2]): 42 nM
EC50 (PC-3): 26 nM
EC50 (HeLa): 57 nM
EC50 (P. falc W2; [1]): 34 nM
EC50 (MCF-7): 24 nM
SMILES: COc1ccc(-c2cnnn2-c2cc(OC)c(OC)c(OC)c2)cc1NC(=O)OC1CCCC2(C1)OOC1(O2)C2CC3CC(C2)CC1C3 (stereo not drawn) [Example 11, dispiro[adamantane-2,2′-[1,3,5]trioxolane-4′,1″-cyclohexane]-3″-yl N-{2-methoxy-5-[1-(3,4,5-trimethoxyphenyl)-1H-1,2,3-triazol-5-yl]phenyl}carbamate]

EC50 (P. falc): 65.7 nM
SMILES: CC(C)(C)[C@H]1C[C@H](OC(=O)Nc2cc(Cl)ccc2Cl)CC2(C1)OOC1(O2)C2CC3CC(C2)CC1C3 (stereo partly drawn) [Example 3, (3″S,5″S)-5″-tert-butyldispiro[adamantane-2,2′-trioxolane-4′,1″-cyclohexane]-3″-yl N-(2,5-dichlorophenyl)carbamate]

EC50 (P. falc W2; [1]): 17.1 nM
SMILES: O=C(OC1CCCC2(C1)OOC1(O2)C2CC3CC(C2)CC1C3)N1CCCCC1[C@@H](O)c1cc(C(F)(F)F)nc2c(C(F)(F)F)cccc12 (stereo partly drawn) [Example 6, dispiro[adamantane-2,2′-[1,3,5]trioxolane-4′,1″-cyclohexane]-3″-v 2-[(S)-[2,8-bis(trifluoromethyl)quinolin-4-yl](hydroxy)methyl]piperidine-1-carboxylate]

EC50 (P. falc): 14.3 nM
SMILES: O=C(Nc1cc(Cl)ccc1Cl)OC1CCCC2(C1)OOC1(O2)C2CC3CC(C2)CC1C3 (stereo not drawn) [Example 1, dispiro[adamantane-2,2′-[1,3,5]trioxolane-4′,1″-cyclohexane]-3″-yl N-(2,5-dichlorophenyl)carbamate]

EC50 (P. falc W2; [1]): 5.9 nM
SMILES: CCNC(=O)OC1CCCC2(C1)OOC1(O2)C2CC3CC(C2)CC1C3 (stereo not drawn) [Example 5, dispiro[adamantane-2,2′-[1,3,5]trioxolane-4′,1″-cyclohexane]-3″-yl N-ethylcarbamate]

EC50 (P. falc D10; Plasmodium falciparum): 25.3 nM
SMILES: O=C(Oc1ccc2ccc(=O)oc2c1)OC1CCCC2(C1)OOC1(O2)C2CC3CC(C2)CC1C3 (stereo not drawn) [Example 17, dispiro[adamantane-2,2′-[1,3,5]trioxolane-4′,1″-cyclohexane]-3″-yl 2-oxo-2H-chromen-7-yl carbonate]

EC50 (P. falc W2; [1]): 27 nM
SMILES: COC1CCC[C@]2(C1)OOC1(O2)C2CC3CC(C2)CC1C3 (stereo partly drawn) [Example 25]

EC50 (P. falc HB3): 94 nM
EC50 (P. falc 3D7): 188 nM
EC50 (P. falc DD2): 188 nM
SMILES: O=C1C(O)=C(C2CCC3(CC2)OOC2(O3)C3CC4CC(C3)CC2C4)C(=O)c2ccccc21 (stereo not drawn) [Example 10, 2-{dispiro[adamantane-2,2′-[1,3,5]trioxolane-4′,1″-cyclohexane]-4″-yl}-3-hydroxy-1,4-dihydronaphthalene-1,4-dione]

EC50 (P. falc W2; [1]): 5 nM
SMILES: CC(C)(N)CNC(=O)OC1CCCC2(C1)OOC1(O2)C2CC3CC(C2)CC1C3 (stereo not drawn) [Example 23, Dispiro[adamantane-2,2′-[1,3,5]trioxolane-4′,1″-cyclohexane]-3″-yl N-(2-amino-2-methylpropyl)carbamate]
